Non-standard residues stand in square brackets, D forms with d. Arg(NO2) = N=C(NCCC[C@H](N)C(=O)O)N[N+](=O)[O-]
Test: Effect of pH value on the stability of the solution (purity)
Type: physicochemical
Settings: for Purity(%) from day 0-28 / Purity(%) from day 0-14: 25° C.; for Purity(%) at day 1 / Purity(%) at day 30 / Purity(%) at day 90 / Purity(%) at day 180 / Purity(%) at day 360: 5% solution
[1] = day 0, pH 1.0, 7% in 25% ethanol
[2] = day 0, pH 2.0, 7% in 25% ethanol
[3] = day 0, pH 3.0, 7% in 25% ethanol
[4] = day 0, pH 3.7, 7% in 25% ethanol
[5] = day 0, pH 4.0, 7% in 25% ethanol
[6] = day 0, pH 4.3, 7% in 25% ethanol
[7] = day 0, pH 4.6, 7% in 25% ethanol
[8] = day 0, pH 5.0, 7% in 25% ethanol
[9] = day 0, pH 6.0, 7% in 25% ethanol
[10] = day 0, pH 7.0, 7% in 25% ethanol
[11] = day 0, pH 8.0, 7% in 25% ethanol
[12] = day 28, pH 1.0, 7% in 25% ethanol
[13] = day 28, pH 2.0, 7% in 25% ethanol
[14] = day 28, pH 3.0, 7% in 25% ethanol
[15] = day 28, pH 3.7, 7% in 25% ethanol
[16] = day 28, pH 4.0, 7% in 25% ethanol
[17] = day 28, pH 4.3, 7% in 25% ethanol
[18] = day 28, pH 4.6, 7% in 25% ethanol
[19] = day 28, pH 5.0, 7% in 25% ethanol
[20] = day 28, pH 6.0, 7% in 25% ethanol
[21] = day 28, pH 7.0, 7% in 25% ethanol
[22] = day 28, pH 8.0, 7% in 25% ethanol
[23] = 25% ethanol (after multiple recrystalization), pH 3.7, 25° C.
[24] = 25% ethanol with 0.5 equivalent sodium acetate, pH 3.7, 25° C.
[25] = 25% ethanol with 1 equivalent sodium acetate, pH 4.6, 25° C.
[26] = 25% ethanol with 1.5 equivalent sodium acetate, pH 5.6, 25° C.
[27] = 25% ethanol with HCl, pH 2.0, 25° C.
[28] = 25% ethanol with NaOH, pH 7, 25° C.
[29] = 25% ethanol with NaOH, pH 8, 25° C.

CC(C)Cc1ccc([C@@H](C)C(=O)OCCC2CCNCC2)cc1.Cl (racemic) [C-8, 4-piperidineethyl (R,S)-2-(p-isobutylphenyl)propionate•HCl salt]
Purity(%) from day 0-28 [1]: 97.6 ± 0.4% | Purity(%) from day 0-28 [2]: 98.0 ± 0.3% | Purity(%) from day 0-28 [3]: 98.1 ± 0.2% | Purity(%) from day 0-28 [4]: 98.3 ± 0.3% | Purity(%) from day 0-28 [5]: 98.4 ± 0.3% | Purity(%) from day 0-28 [6]: 98.4 ± 0.2% | Purity(%) from day 0-28 [7]: 98.3 ± 0.2% | Purity(%) from day 0-28 [8]: 98.3 ± 0.4% | Purity(%) from day 0-28 [9]: 98.2 ± 0.3% | Purity(%) from day 0-28 [10]: 97.9 ± 0.3% | Purity(%) from day 0-28 [11]: 97.6 ± 0.5% | Purity(%) from day 0-28 [12]: 68.4 ± 0.4% | Purity(%) from day 0-28 [13]: 87.3 ± 0.3% | Purity(%) from day 0-28 [14]: 87.3 ± 0.3% | Purity(%) from day 0-28 [15]: 95.0 ± 0.2% | Purity(%) from day 0-28 [16]: 96.1 ± 0.3% | Purity(%) from day 0-28 [17]: 96.3 ± 0.3% | Purity(%) from day 0-28 [18]: 96.3 ± 0.2% | Purity(%) from day 0-28 [19]: 89.7 ± 0.3% | Purity(%) from day 0-28 [20]: 87.3 ± 0.3% | Purity(%) from day 0-28 [21]: 48.3 ± 0.4% | Purity(%) from day 0-28 [22]: 34.2 ± 0.3%

CC(C)Cc1ccc([C@@H](C)C(=O)OCCN2CCCC2)cc1.Cl (racemic) [C-9, 1-pyrrolidineethyl (R,S)-2-(p-isobutylphenyl)propionate•HCl salt]
Purity(%) from day 0-28 [1]: 98.0 ± 0.3% | Purity(%) from day 0-28 [2]: 98.2 ± 0.4% | Purity(%) from day 0-28 [3]: 98.5 ± 0.3% | Purity(%) from day 0-28 [4]: 98.6 ± 0.4% | Purity(%) from day 0-28 [5]: 98.6 ± 0.3% | Purity(%) from day 0-28 [6]: 98.7 ± 0.2% | Purity(%) from day 0-28 [7]: 98.6 ± 0.3% | Purity(%) from day 0-28 [8]: 98.5 ± 0.4% | Purity(%) from day 0-28 [9]: 98.4 ± 0.5% | Purity(%) from day 0-28 [10]: 98.1 ± 0.5% | Purity(%) from day 0-28 [11]: 97.9 ± 0.5% | Purity(%) from day 0-28 [12]: 68.3 ± 0.2% | Purity(%) from day 0-28 [13]: 87.7 ± 0.3% | Purity(%) from day 0-28 [14]: 87.7 ± 0.2% | Purity(%) from day 0-28 [15]: 95.5 ± 0.3% | Purity(%) from day 0-28 [16]: 96.3 ± 0.3% | Purity(%) from day 0-28 [17]: 96.4 ± 0.2% | Purity(%) from day 0-28 [18]: 96.4 ± 0.3% | Purity(%) from day 0-28 [19]: 88.6 ± 0.3% | Purity(%) from day 0-28 [20]: 89.0 ± 0.4% | Purity(%) from day 0-28 [21]: 48.1 ± 0.3% | Purity(%) from day 0-28 [22]: 34.4 ± 0.4%

CC(C)Cc1ccc(C(C)C(=O)OCCN2CCCCC2)cc1.Cl (racemic) [C-10, 1-piperidineethyl (R,S)-2-(p-isobutylphenyl)propionate•HCl salt]
Purity(%) from day 0-28 [1]: 97.6 ± 0.3% | Purity(%) from day 0-28 [2]: 97.9 ± 0.4% | Purity(%) from day 0-28 [3]: 98.0 ± 0.3% | Purity(%) from day 0-28 [4]: 98.2 ± 0.3% | Purity(%) from day 0-28 [5]: 98.2 ± 0.2% | Purity(%) from day 0-28 [6]: 98.3 ± 0.3% | Purity(%) from day 0-28 [7]: 98.2 ± 0.4% | Purity(%) from day 0-28 [8]: 98.2 ± 0.3% | Purity(%) from day 0-28 [9]: 98.1 ± 0.3% | Purity(%) from day 0-28 [10]: 97.8 ± 0.3% | Purity(%) from day 0-28 [11]: 97.5 ± 0.5% | Purity(%) from day 0-28 [12]: 68.1 ± 0.3% | Purity(%) from day 0-28 [13]: 87.0 ± 0.3% | Purity(%) from day 0-28 [14]: 87.0 ± 0.2% | Purity(%) from day 0-28 [15]: 95.1 ± 0.3% | Purity(%) from day 0-28 [16]: 95.8 ± 0.3% | Purity(%) from day 0-28 [17]: 95.9 ± 0.2% | Purity(%) from day 0-28 [18]: 95.8 ± 0.3% | Purity(%) from day 0-28 [19]: 88.5 ± 0.4% | Purity(%) from day 0-28 [20]: 87.9 ± 0.3% | Purity(%) from day 0-28 [21]: 47.8 ± 0.3% | Purity(%) from day 0-28 [22]: 34.1 ± 0.4%

CCN(CC)CCOC(=O)c1ccccc1OC(C)=O.O=C(O)/C=C\C(=O)O [A-1, 2-(diethylamino)ethyl acetylsalicylate•maleic acid salt]
Purity(%) from day 0-14 (day 14, pH 1.0, 7% in water): 59.1 ± 0.4% | Purity(%) from day 0-14 (day 14, pH 2.0, 7% in water): 78.8 ± 0.3% | Purity(%) from day 0-14 (day 14, pH 3.0, 7% in water): 90.9 ± 0.2% | Purity(%) from day 0-14 (day 14, pH 3.7, 7% in water): 94.0 ± 0.3% | Purity(%) from day 0-14 (day 14, pH 4.0, 7% in water): 94.5 ± 0.2% | Purity(%) from day 0-14 (day 14, pH 4.3, 7% in water): 94.6 ± 0.3% | Purity(%) from day 0-14 (day 14, pH 4.6, 7% in water): 94.3 ± 0.2% | Purity(%) from day 0-14 (day 14, pH 5.0, 7% in water): 86.9 ± 0.3% | Purity(%) from day 0-14 (day 14, pH 6.0, 7% in water): 78.9 ± 0.3% | Purity(%) from day 0-14 (day 14, pH 7.0, 7% in water): 57.8 ± 0.4% | Purity(%) from day 0-14 (day 14, pH 8.0, 7% in water): 16.1 ± 0.4%

H-Ala-Pro-Gly-Pro-Arg(NO2)—OCH2CH3•HCl salt (H-APGP[Arg(NO2)]-OEt; also: HCl salt)
Purity(%) at day 1 [23]: 98.1 ± 0.2% | Purity(%) at day 30 [23]: 97.3 ± 0.2% | Purity(%) at day 90 [23]: 95.0 ± 0.1% | Purity(%) at day 180 [23]: 91.2 ± 0.3% | Purity(%) at day 1 [24]: 98.2 ± 0.1% | Purity(%) at day 30 [24]: 97.4 ± 0.2% | Purity(%) at day 90 [24]: 95.1 ± 0.3% | Purity(%) at day 180 [24]: 91.2 ± 0.3% | Purity(%) at day 1 [25]: 98.2 ± 0.2% | Purity(%) at day 30 [25]: 97.3 ± 0.2% | Purity(%) at day 90 [25]: 95.0 ± 0.3% | Purity(%) at day 180 [25]: 91.1 ± 0.3% | Purity(%) at day 1 [26]: 98.1 ± 0.2% | Purity(%) at day 30 [26]: 94.7 ± 0.2% | Purity(%) at day 90 [26]: 91.5 ± 0.3% | Purity(%) at day 180 [26]: 83.7 ± 0.3% | Purity(%) at day 1 [27]: 97.8 ± 0.1% | Purity(%) at day 30 [27]: 84.2 ± 0.2% | Purity(%) at day 90 [27]: 69.6 ± 0.2% | Purity(%) at day 180 [27]: 39.9 ± 0.3% | Purity(%) at day 1 [28]: 97.9 ± 0.2% | Purity(%) at day 30 [28]: 55.2 ± 0.3% | Purity(%) at day 90 [28]: 31.3 ± 0.3% | Purity(%) at day 180 [28]: 0% | Purity(%) at day 1 [29]: 97.5 ± 0.1% | Purity(%) at day 30 [29]: 22.6 ± 0.2% | Purity(%) at day 90 [29]: 0% | Purity(%) at day 180 [29]: 0% | Purity(%) at day 1 (25% ethanol, pH 3.0, 25° C.): 98.1 ± 0.2% | Purity(%) at day 30 (25% ethanol, pH 3.0, 25° C.): 95.7 ± 0.3% | Purity(%) at day 90 (25% ethanol, pH 3.0, 25° C.): 92.8 ± 0.3% | Purity(%) at day 180 (25% ethanol, pH 3.0, 25° C.): 86.0 ± 0.3%

H-Tyr-Gly-Gly-Phe-Met-OCH(CH3)2•HCl salt
Purity(%) at day 1 [23]: 98.9 ± 0.2% | Purity(%) at day 30 [23]: 98.3 ± 0.2% | Purity(%) at day 90 [23]: 97.2 ± 0.1% | Purity(%) at day 180 [23]: 95.4 ± 0.1% | Purity(%) at day 360 [23]: 92.3 ± 0.2% | Purity(%) at day 1 [24]: 98.9 ± 0.1% | Purity(%) at day 30 [24]: 98.4 ± 0.1% | Purity(%) at day 90 [24]: 97.3 ± 0.2% | Purity(%) at day 180 [24]: 95.5 ± 0.2% | Purity(%) at day 360 [24]: 92.5 ± 0.2% | Purity(%) at day 1 [25]: 98.9 ± 0.2% | Purity(%) at day 30 [25]: 98.4 ± 0.2% | Purity(%) at day 90 [25]: 97.4 ± 0.2% | Purity(%) at day 180 [25]: 95.5 ± 0.2% | Purity(%) at day 360 [25]: 92.4 ± 0.2% | Purity(%) at day 1 [26]: 98.8 ± 0.2% | Purity(%) at day 30 [26]: 97.2 ± 0.2% | Purity(%) at day 90 [26]: 94.1 ± 0.1% | Purity(%) at day 180 [26]: 88.7 ± 0.2% | Purity(%) at day 360 [26]: 81.1 ± 0.3% | Purity(%) at day 1 [27]: 98.5 ± 0.1% | Purity(%) at day 30 [27]: 92.1 ± 0.2% | Purity(%) at day 90 [27]: 85.1 ± 0.2% | Purity(%) at day 180 [27]: 71.9 ± 0.2% | Purity(%) at day 360 [27]: 51.8 ± 0.2% | Purity(%) at day 1 [28]: 98.5 ± 0.3% | Purity(%) at day 30 [28]: 77.9 ± 0.2% | Purity(%) at day 90 [28]: 43.6 ± 0.2% | Purity(%) at day 180 [28]: 24.3 ± 0.3% | Purity(%) at day 360 [28]: 0% | Purity(%) at day 1 [29]: 98.2 ± 0.2% | Purity(%) at day 30 [29]: 56.2 ± 0.2% | Purity(%) at day 90 [29]: 33.3 ± 0.3% | Purity(%) at day 180 [29]: 5.8 ± 0.3% | Purity(%) at day 360 [29]: 0% | Purity(%) at day 1 (25% ethanol, pH 3.0, 25° C.): 98.7 ± 0.2% | Purity(%) at day 30 (25% ethanol, pH 3.0, 25° C.): 97.9 ± 0.2% | Purity(%) at day 90 (25% ethanol, pH 3.0, 25° C.): 95.1 ± 0.1% | Purity(%) at day 180 (25% ethanol, pH 3.0, 25° C.): 90.9 ± 0.2% | Purity(%) at day 360 (25% ethanol, pH 3.0, 25° C.): 82.8 ± 0.3%

Source: patent US20230157952A1, “METHOD FOR IMPROVING THE STABILITY OF A PHARMACEUTICAL COMPOSITION COMPRISING A HIGH PENETRATION DRUG, AND THE PHARMACEUTICAL COMPOSITION OBTAINED THEREFROM” (Techfields Inc., priority 2020, published 2023)
